Data set [1] deals with HDAC (HeLa cell extract). Put plainly: Primary assay: deacetylase activity, HeLa cell extract as source of HDAC. The class given is biochemical, human. Conditions: for HDAC Inhibition HeLa, % @ 500: Table 1, @ 500. The source says:
Briefly, this assay relies on the release of radioactive acetate from a radioactively labelled histone fragment by the action of HDAC enzyme. Test compounds, which inhibit HDAC, reduce the yield of radioactive acetate. Signal (e.g., scintillation counts) measured in the presence and absence of a test compound provide an indication of that compound's ability to inhibit HDAC activity. Decreased activity indicates increased inhibition by the test compound.
The histone fragment was an N-terminal sequence from histone H4, and it was labelled with radioactively labelled acetyl groups using tritiated acetylcoenzyme A (coA) in conjunction with an enzyme which is the histone acetyltransferase domain of the transcriptional coactivator p300. […] The acetylated peptide was then separated from free acetyl coA by size exclusion chromatography on Sephadex G-15 (Sigma G-15-120), using distilled H2O as the mobile phase.
After purification of the radiolabelled histone fragment, it was incubated with a source of HDAC (e.g., an extract of HeLa cells (a rich source of HDAC), recombinantly produced HDAC1 or HDAC2) and any released acetate was extracted into an organic phase and quantitatively determined using scintillation counting. By including a test compound with the source of HDAC, that compound's ability to inhibit the HDAC was determined.
Two cell volumes of extraction buffer were used, and particulate material was centrifuged out (20800 g, 4° C., 10 min). The supernatant extract having deacetylase activity was aliquotted and frozen for storage.
A source of HDAC (e.g., 2 μL of crude HeLa extract, 5 μL of HDAC1 or HDAC2; in elution buffer, as above) was incubated with 3 μL of radioactively labelled peptide along with appropriate dilutions of candidate compounds (1.5 μL) in a total volume of 150 μL of buffer (20 mM Tris pH 7.4, 10% glycerol). The reaction was carried out at 37° C. for one hour, after which the reaction was stopped by adding 20 μL of 1 M HCl/0.4 M sodium acetate. […] Radioactivity was measured using a Tri-Carb 21 00TR Liquid Scintillation Analyzer (Packard).
Percent activity (% activity) for each test compound was calculated as: % activity={(S^C−B)/(S°−B)}×100 wherein S^C denotes signal measured in the presence of enzyme and the compound being tested, S° denotes signal measured in the presence of enzyme but in the absence of the compound being tested, and B denotes the background signal measured in the absence of both enzyme and compound being tested.

In data set [2] the test system is HeLa cells. Put plainly: Secondary assay: cell proliferation WST-1, HeLa. The class given is cell-based. Conditions: Homo sapiens, read-out: Cell Proliferation Inhibition WST-1 (IC50 unless otherwise specified) HeLa.
Data set [3] concerns JURKAT human T-cell line. Briefly: Secondary assay: cell proliferation WST-1, Jurkat. Type of data set: cell-based. Conditions: Homo sapiens, Table 2, 48 h, read-out: Cell Proliferation Inhibition WST-1 (IC50 unless otherwise specified) Jurkat. (Formazan colour is commonly taken as a measure of viable cells.)
In data set [4] the test system is K11 HPV E7 transformed human keratinocyte line. Briefly: Secondary assay: cell proliferation WST-1, K11. Conditions: Homo sapiens, Keratinocyte, Table 2, 48 h, read-out: Cell Proliferation Inhibition WST-1 (IC50 unless otherwise specified) K11. The class given is cell-based.
The mark [5] stands for this setting: Table 1, read-out: HDAC Inhibition (IC50 unless otherwise specified) HeLa.
The mark [6] stands for this setting: comparative tables, HDAC inhibition, read-out: HeLa IC50.

Here are results for 27 compounds from patent publication US7407988B2, “Carbamic acid compounds comprising a sulfonamide linkage as HDAC inhibitors” (Topotarget UK Limited, priority 2000, dated 2008).

SMILES strings stand for the structures. Where a name gives a salt, the structure may show the parent alone. Read-outs that look alike come from different tables or passages of the source.

As a reminder, the melting point is the temperature, or range, at which the solid turns liquid. `O=C(CCCCCNS(=O)(=O)c1cccnc1)NO` (as salt: oxalate) [PX117432, 6-(Pyridine-3-sulfonylamino)hexanoic acid hydroxyamide oxalate]: the melting point fell in the range of 132 to 134 °C.

For the compound `O=C(/C=C/c1ccc(NS(=O)(=O)c2ccccc2)cc1)NO` [PX106499, 3-(4-Benzenesulfonylaminophenyl)-N-hydroxyacrylamide], the IC50 was 35 nM in data set [1] (setting [5]); 35 nM in data set [1] (setting [6]); 3.8 µM in data set [2] (Table 2, 48 h).

In turn, `O=C(/C=C/c1cccc(S(=O)(=O)Nc2ccc(Br)cc2)c1)NO` [PX106509] returned a melting point of 204 °C. Besides, the IC50 in data set [1] (setting [5]) is 6 nM. Further, in data set [2] (Table 2, 48 h), the IC50 was 2 µM. Further, the IC50 in data set [3] turned out to be 330 nM. The IC50 in data set [4] came to 2 µM.

As to `O=C(/C=C/c1cccc(S(=O)(=O)Nc2ccc(Cl)cc2)c1)NO` [PX106510], the melting point came out at 198 °C. In addition, the IC50 in data set [1] (setting [5]) was 12 nM. Further, the IC50 in data set [2] (Table 2, 48 h) was 2.3 µM. Moreover, the IC50 in data set [3] worked out at 250 nM. Besides, the IC50 in data set [4] came out at 4.2 µM.

`O=C(CCCCCNS(=O)(=O)c1ccccc1)NO` [PX106522, 6-Benzenesulfonylaminohexanoic acid hydroxyamide] showed a melting point of 80 to 82 °C. The IC50 in data set [1] (setting [5]) stood at 1580 nM. In data set [1] (setting [6]), the IC50 amounted to 1600 nM. For the same compound, the IC50 in data set [2] (Table 2, 48 h) came to 16.7 µM.

As to `O=C(/C=C/C#Cc1cccc(S(=O)(=O)Nc2ccccc2)c1)NO` [PX116238, (E)-5-(3-Phenylsulfamoylphenyl)pent-2-en-4-ynoic acid hydroxyamide], the melting point was in the range of 88 to 90 °C. In addition, the IC50 in data set [1] (setting [5]) worked out at 14 nM. Also, in data set [1] (setting [6]), the IC50 worked out at 14 nM. For the same compound, the IC50 in data set [2] (Table 2, 48 h) was determined as 0.8 µM.

Consider `O=C(/C=C/c1ccccc1S(=O)(=O)Nc1ccccc1)NO` [PX116242, N-Hydroxy-3-(2-phenylsulfamoylphenyl)acrylamide], for which the melting point lay within 205 to 206.5 °C. The “HDAC Inhibition HeLa, % @ 500” value in data set [1] is given as 9% @ 500. The “HeLa, % @ 500 nM” value in data set [1] (comparative tables) stood at 9% @ 500 nM.

With `O=C(CCCCS(=O)(=O)Nc1ccccc1)NO` [PX117233, 5-(Anilinosulfonyl)-N-hydroxypentanamide], the melting point was 128 to 129 °C. For the same compound, in data set [1], the “HDAC Inhibition HeLa, % @ 500” value stood at 21% @ 500.

On to `O=C(CCCCCS(=O)(=O)Nc1ccccc1)NO` [PX117234, 6-(Anilinosulfonyl)-N-hydroxyhexanamide], for which the melting point lay in the range of 97 to 98 °C. Moreover, in data set [1], the “HDAC Inhibition HeLa, % @ 500” value turned out to be 59% @ 500. Moreover, in data set [1] (comparative tables), the “HeLa, % @ 500 nM” value is listed as 59% @ 500 nM.

Compound `O=C(CCCCS(=O)(=O)Nc1ccc2ccccc2c1)NO` [PX117235, N-Hydroxy-5-[(2-naphthylamino)sulfonyl]pentanamide] showed a melting point of 163 to 164 °C. In addition, the “HDAC Inhibition HeLa, % @ 500” value in data set [1] was 40% @ 500.

Regarding `O=C(CCCCCCS(=O)(=O)Nc1ccccc1)NO` [PX117236], the melting point lay in the range of 94 to 95 °C. Moreover, the “HDAC Inhibition HeLa, % @ 500” value in data set [1] is reported as 54% @ 500.

On to `O=C(/C=C/c1cccc(S(=O)(=O)NCc2cccnc2)c1)NO` [PX117250, N-Hydroxy-3-{3-[(pyridin-3-ylmethyl)-sulfamoyl]-phenyl}-acrylamide], for which the melting point was found to be 191 °C. The IC50 in data set [1] (setting [5]) was found to be 192 nM. Besides, the IC50 in data set [2] (Table 2, 48 h) turned out to be 7.8 µM. Moreover, the IC50 in data set [3] was 1000 nM.

Consider `CN(c1ccccc1)S(=O)(=O)CCCCCCC(=O)NO` [PX117260, N-Hydroxy-7-[(methylanilino)sulfonyl]heptanamide], for which the melting point was in the range of 69 to 70 °C. Also, the “HDAC Inhibition HeLa, % @ 500” value in data set [1] turned out to be 35% @ 500.

Compound `CN(c1ccccc1)S(=O)(=O)CCCCCC(=O)NO` [PX117410, N-Hydroxy-6-[(methylanilino)sulfonyl]hexanamide] gave a melting point of 121 to 122 °C. Further, in data set [1], the “HDAC Inhibition HeLa, % @ 500” value came out at 40% @ 500.

As for `CN(c1ccccc1)S(=O)(=O)CCCCCCCC(=O)NO` [PX117411, N-Hydroxy-8-[(methylanilino)sulfonyl]octanamide], the melting point lay in the range of 65.5 to 66.5 °C. In data set [1], the “HDAC Inhibition HeLa, % @ 500” value amounted to 39% @ 500.

`O=C(CCCCCCCS(=O)(=O)N(Cc1ccccc1)c1ccccc1)NO` [PX117412, 8-[(Benzylanilino)sulfonyl]-N-hydroxyoctanamide] came in with a melting point of 119 to 119.5 °C. For the same compound, in data set [1], the “HDAC Inhibition HeLa, % @ 500” value is reported as 54% @ 500.

Consider `O=C(CCCCCS(=O)(=O)N(Cc1ccccc1)c1ccccc1)NO` [PX117414, 6-[(Benzylanilino)sulfonyl]-N-hydroxyhexanamide], for which the melting point is 129 to 129.5 °C. The “HDAC Inhibition HeLa, % @ 500” value in data set [1] worked out at 46% @ 500.

Turning to `O=C(CCCCCNS(=O)(=O)/C=C/c1ccccc1)NO` [PX117429, 6-(2-Phenylethenesulfonylamino)hexanoic acid hydroxyamide], the melting point was in the range of 107 to 109 °C. Besides, the “HDAC Inhibition HeLa, % @ 500” value in data set [1] came out at 73% @ 500.

As for `O=C(CCCCCNS(=O)(=O)c1cccnc1)NO` [PX117432, 6-(Pyridine-3-sulfonylamino)hexanoic acid hydroxyamide oxalate], the “HDAC Inhibition HeLa, % @ 500” value in data set [1] is 24% @ 500.

The compound `O=C(/C=C/c1ccccc1S(=O)(=O)Nc1cccc2ccccc12)NO` [PX117447, N-Hydroxy-3-[2-(naphthalen-1-ylsulfamoyl)-phenyl]-acrylamide] returned a melting point of 186 to 187 °C. For the same compound, the “HDAC Inhibition HeLa, % @ 500” value in data set [1] turned out to be 3% @ 500. Further, the “HeLa, % @ 500 nM” value in data set [1] (comparative tables) turned out to be 3% @ 500 nM. For the same compound, the IC50 in data set [2] (48 h) was 77.8 µM.

Take `CN(c1ccccc1)S(=O)(=O)c1ccccc1/C=C/C(=O)NO` [PX117448, N-Hydroxy-3-[2-(methyl-phenyl-sulfamoyl)-phenyl]-acrylamide]: the melting point was 144.5 to 145.5 °C. Further, in data set [1], the “HDAC Inhibition HeLa, % @ 500” value is 3% @ 500. Moreover, the “HeLa, % @ 500 nM” value in data set [1] (comparative tables) is listed as 3% @ 500 nM. The IC50 in data set [2] (48 h) is 88.9 µM.

`O=C(/C=C/c1ccc(S(=O)(=O)Nc2ccccc2)cc1)NO` [PX117450, N-Hydroxy-3-(4-phenylsulfamoylphenyl)acrylamide]: the melting point was 176 to 177.5 °C. In addition, the IC50 in data set [1] (setting [5]) turned out to be 20 nM. In addition, the IC50 in data set [1] (setting [6]) turned out to be 20 nM. Further, the IC50 in data set [2] (Table 2, 48 h) came to 1.6 µM.

As to `O=C(/C=C/c1cccc(S(=O)(=O)Nc2ccccc2-c2ccccc2)c1)NO` [PX117713, 3-[3-(Biphenyl-2-ylsulfamoyl)phenyl]-N-hydroxy-acrylamide], the IC50 in data set [1] (setting [5]) stood at 138 nM; in data set [2] (Table 2, 48 h) it was 5.1 µM; in data set [3], 620 nM; in data set [4] it was 9.2 µM.

With `O=C(/C=C/c1cccc(S(=O)(=O)NC2Cc3ccccc3C2)c1)NO` [PX117735, N-Hydroxy-3-[3-(indan-2-ylsulfamoyl)-phenyl]-acrylamide], the melting point is 164 °C. For the same compound, the IC50 in data set [1] (setting [5]) was 6 nM. In data set [3], the IC50 stood at 74 nM. For the same compound, the IC50 in data set [4] stood at 3.1 µM.

As to `O=C(/C=C/c1ccc(S(=O)(=O)Nc2ccc3ccccc3c2)cc1)NO` [PX117736, N-Hydroxy-3-[4-(naphthalen-2-ylsulfamoyl)-phenyl]-acrylamide], the melting point was 198.5 to 199.5 °C. In data set [1] (setting [5]), the IC50 is 6 nM. Moreover, in data set [3], the IC50 came to 120 nM. Also, in data set [4], the IC50 came to 0.8 µM.

Consider `COc1cc(CNS(=O)(=O)c2cccc(/C=C/C(=O)NO)c2)cc(OC)c1OC` [PX117778, N-Hydroxy-3-[3-(3,4,5-trimethoxy-benzylsulfamoyl)-phenyl]-acrylamide], for which the values for the IC50 in data set [1] (setting [5]), in data set [3] and in data set [4] were greater than 400 nM, greater than 10000 nM and greater than 30 µM, respectively.

As for `COc1ccc(CCNS(=O)(=O)c2cccc(/C=C/C(=O)NO)c2)cc1OC` [PX117779, 3-{3-[2-(3,4-Dimethoxy-phenyl)-ethylsulfamoyl]-phenyl}-N-hydroxy-acrylamide], the IC50 in data set [1] (setting [5]) was determined as 250 nM; in data set [2] (Table 2, 48 h) it was 9.6 µM; in data set [3], 1100 nM; in data set [4], 1.4 µM.
